Entries after “also recorded” stand apart in the source; their conditions may differ. Like-named read-outs stand apart in the source and are kept apart here. One block for each compound: values may come before it.
Assays:
[1] = system: guinea pigs; conditions: cited from earlier work
[2] = system: mice addicted to cocaine; experiment: cocaine intravenous self-administration (IVSA) in cocaine-addicted mice; format: in vivo
Protocol: The efficacy of PNU-109291 treatment in mice addicted to cocaine was tested. Mice first acquired cocaine IVSA at 0.75 mg/kg cocaine per dose at a fixed-ratio-1 reinforcement schedule, then a fixed-ratio-5 schedule until they stabilized their drug-taking behavior. The animals were then injected with descending doses of PNU-109291 prior to IVSA sessions. Doses of PNU-109291 were separated by vehicle injection, and vehicle-first versus agonist-first order was randomized and counterbalanced.

[3] = target: T1, 5-HT1A receptor (Homo sapiens, UniProt P08908); conditions: cited from earlier work
T1 sequence (P08908 1-422): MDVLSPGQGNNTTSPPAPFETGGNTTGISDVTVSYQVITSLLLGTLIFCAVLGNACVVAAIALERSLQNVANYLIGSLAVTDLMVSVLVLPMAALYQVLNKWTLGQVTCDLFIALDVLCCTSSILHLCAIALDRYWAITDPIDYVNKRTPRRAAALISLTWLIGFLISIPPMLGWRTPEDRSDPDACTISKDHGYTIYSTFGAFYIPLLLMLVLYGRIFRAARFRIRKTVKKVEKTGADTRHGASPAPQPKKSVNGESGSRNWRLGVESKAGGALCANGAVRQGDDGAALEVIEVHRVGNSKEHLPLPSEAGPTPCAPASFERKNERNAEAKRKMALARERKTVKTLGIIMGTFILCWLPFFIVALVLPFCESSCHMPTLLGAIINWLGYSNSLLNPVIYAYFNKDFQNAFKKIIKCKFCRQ

[4] = target: 5-HT2A receptor (Homo sapiens, UniProt P28223); conditions: cited from earlier work
Chain of 5-HT2A receptor (P28223 whole entry): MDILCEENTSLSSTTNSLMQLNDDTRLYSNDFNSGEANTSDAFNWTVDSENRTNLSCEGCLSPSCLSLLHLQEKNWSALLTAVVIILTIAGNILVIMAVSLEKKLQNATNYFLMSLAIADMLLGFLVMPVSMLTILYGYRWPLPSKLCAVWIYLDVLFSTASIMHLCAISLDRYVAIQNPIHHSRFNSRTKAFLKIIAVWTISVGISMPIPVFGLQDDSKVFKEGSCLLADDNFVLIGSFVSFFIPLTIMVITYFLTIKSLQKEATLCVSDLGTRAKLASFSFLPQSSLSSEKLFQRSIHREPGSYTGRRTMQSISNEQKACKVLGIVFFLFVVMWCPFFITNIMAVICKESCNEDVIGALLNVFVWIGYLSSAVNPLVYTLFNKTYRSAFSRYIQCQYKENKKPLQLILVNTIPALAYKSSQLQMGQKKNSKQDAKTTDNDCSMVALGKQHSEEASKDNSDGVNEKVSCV

[5] = target: 5-HT1B receptor (Homo sapiens, UniProt P28222); conditions: cited from earlier work
Chain of 5-HT1B receptor (P28222 whole entry): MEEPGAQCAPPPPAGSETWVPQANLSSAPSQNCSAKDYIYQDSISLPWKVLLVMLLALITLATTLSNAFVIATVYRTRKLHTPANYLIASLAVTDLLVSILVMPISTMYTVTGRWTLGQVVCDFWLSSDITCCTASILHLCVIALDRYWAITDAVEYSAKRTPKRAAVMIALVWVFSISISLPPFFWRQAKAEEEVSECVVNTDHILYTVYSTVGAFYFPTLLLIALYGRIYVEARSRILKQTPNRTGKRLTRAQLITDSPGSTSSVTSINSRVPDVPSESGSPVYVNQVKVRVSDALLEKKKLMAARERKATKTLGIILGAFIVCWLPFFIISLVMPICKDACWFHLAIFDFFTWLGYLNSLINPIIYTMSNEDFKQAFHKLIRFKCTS

[6] = target: 5-HT1E receptor (Homo sapiens, UniProt P28566); conditions: cited from earlier work
Chain of 5-HT1E receptor (P28566 whole entry): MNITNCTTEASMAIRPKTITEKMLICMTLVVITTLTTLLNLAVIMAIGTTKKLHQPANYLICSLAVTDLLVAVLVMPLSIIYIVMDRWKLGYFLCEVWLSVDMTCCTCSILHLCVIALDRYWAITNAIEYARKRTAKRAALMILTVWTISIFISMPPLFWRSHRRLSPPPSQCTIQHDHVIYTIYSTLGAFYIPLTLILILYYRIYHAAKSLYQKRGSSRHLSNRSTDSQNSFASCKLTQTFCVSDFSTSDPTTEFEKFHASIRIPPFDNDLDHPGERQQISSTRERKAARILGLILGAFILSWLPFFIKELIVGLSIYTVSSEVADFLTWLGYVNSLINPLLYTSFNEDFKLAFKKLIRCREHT

[7] = target: 5-HT2B receptor (Homo sapiens, UniProt P41595); conditions: cited from earlier work
Chain of 5-HT2B receptor (P41595 whole entry): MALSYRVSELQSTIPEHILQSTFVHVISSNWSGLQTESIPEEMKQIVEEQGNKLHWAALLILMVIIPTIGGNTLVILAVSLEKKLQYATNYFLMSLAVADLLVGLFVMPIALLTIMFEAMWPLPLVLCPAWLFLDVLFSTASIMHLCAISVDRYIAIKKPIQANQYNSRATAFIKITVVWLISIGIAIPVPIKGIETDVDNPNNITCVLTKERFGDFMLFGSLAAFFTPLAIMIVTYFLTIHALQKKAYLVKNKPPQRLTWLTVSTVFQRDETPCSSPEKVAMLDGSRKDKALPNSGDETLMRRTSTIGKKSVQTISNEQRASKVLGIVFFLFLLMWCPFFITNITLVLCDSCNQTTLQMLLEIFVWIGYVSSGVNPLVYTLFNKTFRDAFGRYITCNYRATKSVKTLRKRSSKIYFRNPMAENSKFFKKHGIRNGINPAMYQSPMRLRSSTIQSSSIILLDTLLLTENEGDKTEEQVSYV

[8] = target: T2, 5-HT2C receptor (Homo sapiens, UniProt P28335); conditions: cited from earlier work
T2 sequence (P28335 33-458): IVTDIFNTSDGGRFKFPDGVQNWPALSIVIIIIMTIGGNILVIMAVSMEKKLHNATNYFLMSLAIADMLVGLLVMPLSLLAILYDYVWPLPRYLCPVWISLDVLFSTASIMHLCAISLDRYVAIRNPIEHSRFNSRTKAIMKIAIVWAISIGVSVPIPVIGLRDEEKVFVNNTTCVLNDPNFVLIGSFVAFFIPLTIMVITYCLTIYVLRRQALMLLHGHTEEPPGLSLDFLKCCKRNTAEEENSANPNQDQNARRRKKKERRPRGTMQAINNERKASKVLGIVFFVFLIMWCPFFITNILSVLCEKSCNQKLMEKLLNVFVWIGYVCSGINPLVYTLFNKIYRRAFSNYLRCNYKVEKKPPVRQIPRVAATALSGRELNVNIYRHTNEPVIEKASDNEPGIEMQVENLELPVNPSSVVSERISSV

[9] = target: 5-HT6 receptor (Homo sapiens, UniProt P50406); conditions: cited from earlier work
Chain of 5-HT6 receptor (P50406 whole entry): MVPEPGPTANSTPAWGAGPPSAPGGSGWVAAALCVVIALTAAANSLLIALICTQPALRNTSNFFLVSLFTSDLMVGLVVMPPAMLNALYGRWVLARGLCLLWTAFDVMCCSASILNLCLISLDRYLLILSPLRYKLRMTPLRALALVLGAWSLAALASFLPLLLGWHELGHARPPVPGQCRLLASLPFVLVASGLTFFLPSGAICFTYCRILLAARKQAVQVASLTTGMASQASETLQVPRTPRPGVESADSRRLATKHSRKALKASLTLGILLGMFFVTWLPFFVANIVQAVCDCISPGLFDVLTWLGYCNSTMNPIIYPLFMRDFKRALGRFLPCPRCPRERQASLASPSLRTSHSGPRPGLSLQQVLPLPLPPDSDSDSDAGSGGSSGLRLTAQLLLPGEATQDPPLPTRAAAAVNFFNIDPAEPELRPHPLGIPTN

[10] = target: 5-HT7 receptor (Homo sapiens, UniProt P34969); conditions: cited from earlier work
Chain of 5-HT7 receptor (P34969 whole entry): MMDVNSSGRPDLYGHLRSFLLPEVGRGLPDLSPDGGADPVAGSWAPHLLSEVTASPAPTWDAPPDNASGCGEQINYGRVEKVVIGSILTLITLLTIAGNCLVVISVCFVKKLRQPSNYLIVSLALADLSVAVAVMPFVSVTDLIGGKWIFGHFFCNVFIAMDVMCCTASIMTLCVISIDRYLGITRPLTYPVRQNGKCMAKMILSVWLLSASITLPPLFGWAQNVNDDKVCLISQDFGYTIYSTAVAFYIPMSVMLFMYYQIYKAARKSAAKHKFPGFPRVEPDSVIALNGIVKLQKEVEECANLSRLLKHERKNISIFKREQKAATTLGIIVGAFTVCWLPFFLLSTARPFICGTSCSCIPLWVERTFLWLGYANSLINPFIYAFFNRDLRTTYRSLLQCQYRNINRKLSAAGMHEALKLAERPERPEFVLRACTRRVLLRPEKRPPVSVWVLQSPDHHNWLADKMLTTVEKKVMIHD

[11] = system: C57BL/6NJ mice; experiment: hypothermia bioassay for blood-brain barrier penetration in mice
Protocol: (§1) In some embodiments, the hypothermia bioassay described herein is used to determine whether a drug passes the BBB.
(§2) Thus, if mice developed hypothermia following administration of a drug, the drug was determined to cross the blood-brain barrier. […] Both drugs were formulated using 5% Kolliphor® HS-15 and 5% NMP in saline as a vehicle, as using dimethyl sulfoxide (DMSO), a standard solvent, caused hypothermia by itself.
(§3) The temperature of mice was then monitored for 120 minutes following injection.

[12] = system: C57BL/6NJ mice; conditions: mouse, in vivo, iv, 10 mg/kg
Protocol: as §1, §2, §3

SMILES: COc1ccc(CNC(=O)/C=C/c2ccc3[nH]cc(CCN(C)C)c3c2)cc1 [GR46611]
central hypothermia ([1]; injected directly into the lateral ventricles of guinea pigs): caused central hypothermia

SMILES: CNC(=O)c1ccc2c(c1)CCO[C@H]2CCN1CCN(c2ccc(OC)cc2)CC1 [PNU-109291, (S)-3,4-Dihydro-1-[2-[4-(4-methoxyphenyl)-1-piperazinyl]ethyl]-N-methyl-1H-2-benzopyran-6-carboxamide]
volitional cocaine-taking (total infusions of cocaine self-administered) ([2]; intravenous pre-treatment, 10 mg/kg body weight, before IVSA session): significant dose effect; also recorded: reduced volitional cocaine-taking behavior | inactive lever presses ([2]; intravenous pre-treatment, range of doses): no differences in inactive lever presses; also recorded: no effect | cocaine self-administration, dose dependence ([2]; range of doses, cocaine-addicted mice): dose-dependent decrease in cocaine self-administration | selectivity for 5-HTR1D over 5-HT1A receptor [3]: > 600 -fold | selectivity for 5-HTR1D over 5-HT2A receptor [4]: > 600 -fold | activity at 5-HT1B receptor [5]: no activity | activity at 5-HT1E receptor [6]: no activity | activity at 5-HT2B receptor [7]: no activity | activity at 5-HT2C receptor [8]: no activity | activity at 5-HT6 receptor [9]: no activity | activity at 5-HT7 receptor [10]: no activity | central hypothermia ([11]; intravenous administration in mice, dose not given): caused central hypothermia at levels comparable to a known BBB-permeable drug | central hypothermia (internal temperature) ([11]; intravenous injection, 10 mg/kg, temperature monitored for 120 minutes, vehicle 5% Kolliphor HS-15 and 5% NMP in saline): induced central hypothermia | blood-brain barrier penetration, inferred from hypothermia ([11]; intravenous, 10 mg/kg, mice): can bypass the blood-brain barrier; also recorded: penetrates the blood-brain barrier

SMILES: CNS(=O)(=O)Cc1ccc2[nH]cc(CCN(C)C)c2c1 [sumatriptan]
central hypothermia ([1]; injected subcutaneously, guinea pigs): does not

blood-brain barrier penetration, inferred from hypothermia [12]: can bypass the blood-brain barrier
SMILES: CN(C)CCc1c[nH]c2ccc(C[C@H]3COC(=O)N3)cc12 [zolmitriptan]

— patent US20260263449A1, “METHODS AND COMPOSITIONS FOR TREATING COCAINE ADDICTION” (The Jackson Laboratory, priority 2023, published 2026)
